Measurements taken from patent publication US11098010B2 (priority 2017, dated 2021).
Structures can show the parent of a compound that is named as a salt. Where two headings read alike, the source gives them in different places.

Tested on: HBV rcDNA in HepDE19 cells
Experiment: HepDE19 assay with bDNA quantitation of HBV rcDNA
Assay type: cell-based, hepatitis B virus (HBV)
[1] = Hepatitis B virus, HepDE19, 168 h, read-out: DE-19 bDNA EC50 (μM), HepDE19 cells, inhibition of rcDNA formation, 7 day incubation, top concentration 25 μM
[2] = Hepatitis B virus, HepDE19, 168 h, HepDE19 cells, inhibition of rcDNA formation, 7 day incubation, top concentration 25 μM, read-out: DE-19 bDNA EC50
[3] = HepDE19 cells, inhibition of rcDNA formation, 7 day incubation, top concentration 25 μM, read-out: DE-19 bDNA EC50

Compound | EC50 [1] [µM] | EC50 [2] [µM] | further results
O=C(Nc1ccc(F)c(Cl)c1)c1ccc(F)c2c1CC[C@@H]2Nc1ccccn1 [Compound 97, (S)—N-(3-Chloro-4-fluorophenyl)-7-fluoro-1-(pyridin-2-ylamino)-2,3-dihydro-1H-indene-4-carboxamide Hydrochloride] | 0.22 |  | 
Cn1ccc(C(=O)N[C@H]2CCc3c(C(=O)Nc4ccc(F)c(Cl)c4)ccc(F)c32)n1 [Compound 98, (S)—N-(4-((3-Chloro-4-fluorophenyl)carbamoyl)-7-fluoro-2,3-dihydro-1H-inden-1-yl)-1-methyl-1H-pyrazole-3-carboxamide] |  | 0.82 | 
O=C(N[C@H]1CCc2c(C(=O)Nc3ccc(F)c(Cl)c3)ccc(F)c21)OCCOc1ccccc1 [Compound 99, O-2-Phenoxyethyl, N—(S)-(4-((3-chloro-4-fluorophenyl)carbamoyl)-7-fluoro-2,3-dihydro-1H-inden-1-yl) carbamate] | 1.22 |  | 
Cn1nccc1C(=O)N[C@H]1CCc2c(C(=O)Nc3ccc(F)c(Cl)c3)ccc(F)c21 [Compound 100, (S)—N-(4-((3-Chloro-4-fluorophenyl)carbamoyl)-7-fluoro-2,3-dihydro-1H-inden-1-yl)-1-methyl-1H-pyrazole-5-carboxamide] |  | 0.74 | 
Cn1ccc(S(=O)(=O)N[C@H]2CCc3c(C(=O)Nc4ccc(F)c(Cl)c4)ccc(F)c32)n1 [Compound 101, (S)—N-(3-Chloro-4-fluorophenyl)-7-fluoro-1-((1-methyl-1H-pyrazole)-3-sulfonamido)-2,3-dihydro-1H-indene-4-carboxamide] |  | 0.72 | 
Cn1cnc(COC(=O)N[C@H]2CCc3c(C(=O)Nc4ccc(F)c(Cl)c4)ccc(F)c32)n1 [Compound 102, O-(1-Methyl-1H-1,2,4-triazol-3-yl)methyl, N—(S)-(4-((3-chloro-4-fluorophenyl)carbamoyl)-7-fluoro-2,3-dihydro-1H-inden-1-yl) carbamate] |  | 0.07 | 
Cn1nccc1COC(=O)N[C@H]1CCc2c(C(=O)Nc3ccc(F)c(Cl)c3)ccc(F)c21 [Compound 103, O-(1-Methyl-1H-pyrazol-5-yl)methyl, N—(S)-(4-((3-chloro-4-fluorophenyl)carbamoyl)-7-fluoro-2,3-dihydro-1H-inden-1-yl) carbamate] |  | 0.1 | 
NC(=O)c1ccnc(N[C@H]2CCc3c(C(=O)Nc4ccc(F)c(Cl)c4)ccc(F)c32)n1 [Compound 104, (S)-2-((4-((3-Chloro-4-fluorophenyl)carbamoyl)-7-fluoro-2,3-dihydro-1H-inden-1-yl)amino)pyrimidine-4-carboxamide] | 0.16 |  | 
Cc1ncsc1CCOC(=O)N[C@H]1CCc2c(C(=O)Nc3ccc(F)c(Cl)c3)ccc(F)c21 [Compound 105, O-2-(4-Methylthiazol-5-yl)ethyl, N—(S)-(4-((3-chloro-4-fluorophenyl)carbamoyl)-7-fluoro-2,3-dihydro-1H-inden-1-yl) carbamate] | 0.19 |  | 
CC(C)n1nccc1COC(=O)N[C@H]1CCc2c(C(=O)Nc3ccc(F)c(Cl)c3)ccc(F)c21 [Compound 106, O-(1-Isopropyl-1H-pyrazol-5-yl)methyl, N—(S)-(4-((3-chloro-4-fluorophenyl)carbamoyl)-7-fluoro-2,3-dihydro-1H-inden-1-yl) carbamate] |  |  | EC50 [3]: 0.17 µM
COc1ccc(COC(=O)N[C@H]2CCc3c(C(=O)Nc4ccc(F)c(Cl)c4)ccc(F)c32)nc1 [Compound 107, O-(5-Methoxypyridin-2-yl)methyl, N—(S)-(4-((3-chloro-4-fluorophenyl)carbamoyl)-7-fluoro-2,3-dihydro-1H-inden-1-yl) carbamate Hydrochloride] | 1.2 |  | 
O=C(N[C@H]1CCc2c(C(=O)Nc3ccc(F)c(Cl)c3)ccc(F)c21)OC[C@@H]1CCCN1CC(F)(F)F [Compound 108, O-[(2S)-1-(2,2,2-Trifluoroethyl)pyrrolidin-2-yl]methyl, N-[(1S)-4-[(3-chloro-4-fluorophenyl)carbamoyl]-7-fluoro-2,3-dihydro-1H-inden-1-yl]carbamate Hydrochloride] | 0.72 |  | 
O=C(N[C@H]1CCc2c(C(=O)Nc3ccc(F)c(Cl)c3)ccc(F)c21)OCc1ccc(F)cn1 [Compound 109, O-(5-Fluoropyridin-2-yl)methyl, N—(S)-(4-((3-chloro-4-fluorophenyl)carbamoyl)-7-fluoro-2,3-dihydro-1H-inden-1-yl) carbamate] | 0.27 |  | 
O=C(N[C@H]1CCc2c(C(=O)Nc3ccc(F)c(Cl)c3)ccc(F)c21)OCCc1cn[nH]c1 [Compound 110, O-2-(1H-Pyrazol-4-yl)ethyl, N—(S)-(4-((3-chloro-4-fluorophenyl)carbamoyl)-7-fluoro-2,3-dihydro-1H-inden-1-yl) carbamate] | 0.2 |  | 
COCCOC(=O)N[C@H]1CCc2c(C(=O)Nc3ccc(F)c(Cl)c3)ccc(F)c21 [Compound 111, O-2-Methoxyethyl, N—(S)-(4-((3-chloro-4-fluorophenyl)carbamoyl)-7-fluoro-2,3-dihydro-1H-inden-1-yl) carbamate] |  | 0.15 | 
O=C(N[C@H]1CCc2c(C(=O)Nc3ccc(F)c(Cl)c3)ccc(F)c21)OC[C@H]1CCCO1 [Compound 112, O—((R)-Tetrahydrofuran-2-yl)methyl, N—((S)-4-((3-chloro-4-fluorophenyl)carbamoyl)-7-fluoro-2,3-dihydro-1H-inden-1-yl) carbamate] | 0.21 |  | 

Compound | EC50 [1] [µM] | EC50 [2] [µM] | further results
O=C(N[C@H]1CCc2c(C(=O)Nc3ccc(F)c(Cl)c3)ccc(F)c21)OC1CCOCC1 [Compound 113, O-Tetrahydro-2H-pyran-4-yl, N—(S)-(4-((3-chloro-4-fluorophenyl)carbamoyl)-7-fluoro-2,3-dihydro-1H-inden-1-yl) carbamate] | 0.31 |  | 
COCCCOC(=O)N[C@H]1CCc2c(C(=O)Nc3ccc(F)c(Cl)c3)ccc(F)c21 [Compound 114, O-3-Methoxypropyl, N—(S)-(4-((3-chloro-4-fluorophenyl)carbamoyl)-7-fluoro-2,3-dihydro-1H-inden-1-yl) carbamate] | 0.47 |  | 
O=C(N[C@H]1CCc2c(C(=O)Nc3ccc(F)c(Cl)c3)ccc(F)c21)c1ccccn1 [Compound 115, (S)—N-(4-((3-Chloro-4-fluorophenyl)carbamoyl)-7-fluoro-2,3-dihydro-1H-inden-1-yl)picolinamide] |  | 2.2 | 
O=C(N[C@H]1CCc2c(C(=O)Nc3ccc(F)c(Cl)c3)ccc(F)c21)c1cncs1 [Compound 116, (S)—N-(4-((3-Chloro-4-fluorophenyl)carbamoyl)-7-fluoro-2,3-dihydro-1H-inden-1-yl)thiazole-5-carboxamide] |  | 1.7 | 
CS(=O)(=O)N[C@H]1CCc2c(C(=O)Nc3ccc(F)c(Cl)c3)ccc(F)c21 [Compound 117, (S)—N-(3-chloro-4-fluorophenyl)-7-fluoro-1-(methylsulfonamido)-2,3-dihydro-1H-indene-4-carboxamide] |  | 0.52 | 
O=C(CN1CCOCC1)N[C@H]1CCc2c(C(=O)Nc3ccc(F)c(Cl)c3)ccc(F)c21 [Compound 118, (S)—N-(3-Chloro-4-fluorophenyl)-7-fluoro-1-(2-morpholinoacetamido)-2,3-dihydro-1H-indene-4-carboxamide] |  | 2.2 | 
O=C(N[C@H]1CCc2c(C(=O)Nc3ccc(F)c(Cl)c3)ccc(F)c21)c1ccncc1 [Compound 120, (S)—N-(4-((3-Chloro-4-fluorophenyl)carbamoyl)-7-fluoro-2,3-dihydro-1H-inden-1-yl)isonicotinamide] |  | 0.24 | 
COC(=O)NC1c2c(F)ccc(C(=O)Nc3ccc(F)c(Cl)c3)c2CC1(C)C (stereo not shown) [Compound 121, O-Methyl, N-(4-((3-chloro-4-fluorophenyl)carbamoyl)-7-fluoro-2,2-dimethyl-2,3-dihydro-1H-inden-1-yl) carbamate] |  |  | EC50 [3]: > 25 µM
COC(=O)NC1c2c(F)ccc(C(=O)Nc3ccc(F)c(Cl)c3)c2CC1(C)C (stereo not shown) [Compound 122, O-Methyl, N-(4-((3-chloro-4-fluorophenyl)carbamoyl)-7-fluoro-2,2-dimethyl-2,3-dihydro-1H-inden-1-yl) carbamate] |  |  | EC50 [3]: 0.47 µM
COC(=O)O[C@H]1CCc2c(C(=O)Nc3ccc(F)c(Cl)c3)ccc(F)c21 [Compound 123, (S)-4-(3-Chloro-4-fluorophenylcarbamoyl)-7-fluoro-2,3-dihydro-1H-inden-1-yl Methyl Carbonate] |  | 0.76 | 
O=C(N[C@H]1CCc2c(C(=O)Nc3ccc(F)c(Cl)c3)ccc(F)c21)OCc1cscn1 [Compound 124, O-Thiazol-4-ylmethyl, N—(S)-(4-((3-chloro-4-fluorophenyl)carbamoyl)-7-fluoro-2,3-dihydro-1H-inden-1-yl) carbamate] |  | 0.06 | 
O=C(N[C@H]1CCc2c(C(=O)Nc3ccc(F)c(Cl)c3)ccc(F)c21)OCCCn1ccnc1 [Compound 125, O-3-(1H-Imidazol-1-yl)propyl, N—(S)-(4-((3-chloro-4-fluorophenyl)carbamoyl)-7-fluoro-2,3-dihydro-1H-inden-1-yl) carbamate Hydrochloride] | 0.28 |  | 
N#Cc1cc(NC(=O)c2ccc(F)c3c2CC[C@@H]3NC(=O)OCc2ccccn2)ccc1F [Compound 126, O-Pyridin-2-ylmethyl, N—(S)-(4-((3-cyano-4-fluorophenyl)carbamoyl)-7-fluoro-2,3-dihydro-1H-inden-1-yl)carbamate Hydrochloride] | 0.24 |  | 
O=C(N[C@H]1CCc2c(C(=O)Nc3ccc(F)c(Cl)c3)ccc(F)c21)c1nccs1 [Compound 127, (S)—N-(4-((3-Chloro-4-fluorophenyl)carbamoyl)-7-fluoro-2,3-dihydro-1H-inden-1-yl)thiazole-2-carboxamide] |  | 0.36 | 
O=C(Nc1ccc(F)c(Cl)c1)c1ccc(F)c2c1CC[C@@H]2NS(=O)(=O)C1CC1 [Compound 128, (S)—N-(3-Chloro-4-fluorophenyl)-1-(cyclopropanesulfonamido)-7-fluoro-2,3-dihydro-1H-indene-4-carboxamide] |  | 0.04 | 
